Measured values: patent publication US4278762A, “Method for the quantitative determination of plasminogen activators” (Pentapharm AG, priority 1976, dated 1981)
Structures can show the parent of a compound that is named as a salt. Non-standard residues stand in square brackets, D forms with d. Residues, ends and D or L forms follow the SMILES beside them. *: point of attachment. pNA = O=[N+]([O-])c1ccc(N*)cc1; Chg = N[C@H](C(=O)O)C1CCCCC1; Cbz = O=C(OCc1ccccc1)*; Bz = O=C(c1ccccc1)*

Key:
Type in all cases: biochemical
[1] = target: T1, trypsin (Bos taurus, UniProt P00760); assay: Determination of trypsin in duodenal juice with substrate; settings: per ml of test sample; pH 8.4, ionic strength 0.30, 37° C., 405 nm
T1 construct: b360 concerns trypsin in duodenal juice
T1 sequence (P00760 24-246): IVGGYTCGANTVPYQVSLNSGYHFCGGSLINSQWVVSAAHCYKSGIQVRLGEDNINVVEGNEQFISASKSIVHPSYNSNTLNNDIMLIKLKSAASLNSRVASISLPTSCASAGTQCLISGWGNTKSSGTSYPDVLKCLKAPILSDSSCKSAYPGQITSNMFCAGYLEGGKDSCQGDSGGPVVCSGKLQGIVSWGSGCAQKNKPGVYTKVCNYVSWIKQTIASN
Experimental: The determination of trypsin in duodenal juice can be carried out for instance as follows: 1.79 ml of tris-imidazole buffer having a pH of 8.4 and an ionic strength of 0.30 are mixed with 0.01 ml of duodenal juice at 37° C. in a measuring vessel. Thereafter, the mixture is rapidly mixed with 0.2 ml of a 2×10^-3 molar solution of a substrate of this invention. The quantity of p-nitroaniline released from the substrate by the action of trypsin is determined by measuring the change in the optical density Δ OD per minute at a wave length of 405 nm. The quantity of p-nitroaniline released per minute or the corresponding change in the optical density is proportional to the trypsin activity. When using the substrate prepared according to Example 10, i.e. N^α -Cbo-C.cyclohexylglycyl-Gly-Arg-pNA.HCl, trypsin can be determined for instance at concentrations as low as 0.01 NF unit per ml of test sample.

[2] = target: T2, urokinase (Homo sapiens, UniProt P00749); assay: Enzyme quantity splitting substrate I at 1 μmole pNA per minute (Table II), urokinase; settings: 37° C., pH 8.4, ionic strength 0.3, substrate concentration 10^-4 mole
T2 construct: also urine of healthy test persons
Experimental: (§1) In the first column of Table II are listed the quantities of the various enzymes which split substrate I at a temperature of 37° C., a pH of 8.4, an ionic strength of 0.3 and a substrate concentration of 10^-4 mole with a velocity of 1 μmole per minute. In the second column the corresponding enzyme quantity, expressed in other enzyme units, is indicated.

[3] = test system: urine kallikrein; assay: Enzyme quantity splitting substrate I at 1 μmole pNA per minute (Table II), urine kallikrein
Experimental: BAEE (Benzoyl-L-arginine ethyl ester)--1 BAEE unit of urine kallikrein is that quantity of enzyme which hydrolyzes 1 μmole of benzoyl-L-arginine ethyl ester per minute under standard conditions.
as §1

[4] = test system: human plasmin; assay: Enzyme quantity splitting substrate I at 1 μmole pNA per minute (Table II), plasmin; settings: 37° C., pH 8.4, ionic strength 0.3, substrate concentration 10^-4 mole
Experimental: CU is the casein unit which is measured on casein under standard conditions.
as §1

[5] = target: T3, bovine trypsin (Bos taurus, UniProt P00760); assay: Enzyme quantity splitting substrate I at 1 μmole pNA per minute (Table II), trypsin; settings: 37° C., pH 8.4, ionic strength 0.3, substrate concentration 10^-4 mole
T3 sequence (P00760 24-246): T1 sequence (P00760 24-246)
Experimental: NF is the trypsin unit, i.e. that quantity of enzyme which causes a change in the absorption Δ OD of 0.003 per minute, measured on benzoyl-L-arginine ethyl ester under standard conditions (cf. "The National Formulary XII", edited by "The American Pharmaceutical Association", Washington, D.C., 1965, pages 417-418).
as §1

[6] = target: T2, urokinase; assay: Kinetic constants Km and vmax of substrate hydrolysis by urokinase (Lineweaver-Burk); settings: per CTA unit, pH 8.4, ionic strength 0.30, 37° C.
Experimental: The enzyme and the substrate are mixed in a buffer solution, and the hydrolysis reaction is followed for 2 to 30 minutes. The concentration of substate [S] is varied, whereas the enzyme concentration is kept constant. If the extinction (OD=optical density) is plotted in a co-ordinate system as a function of time, a curve is obtained the tangent of which at time zero corresponds to the ideal course of the hydrolysis. By means of this tangent the initial rate of the hydrolysis can be determined.
If 1/v is plotted against (1/[S]), a Lineweaver-Burk diagram (cf. "Kurzes Lehrbuch der Biochemie" by P. KARLSON, Georg Thieme-Verlag, Stuttgart, 1967, p. 70) is obtained from which vmax and Km can be determined graphically.
For the determination of the kinetic constants Km and vmax listed in Table I aqueous dilution series of the substrates with concentrations from 0.1 to 2 μmoles/ml were used. […] The value of the quantity of p-nitroaniline formed per minute is a measure for the rate of hydrolysis at a given substrate concentration. […] The kinetic constants Km and vmax were determined from the points of intersection of the curves with the abscissa and the ordinate.

[7] = target: T3, bovine trypsin; assay: Activity of bovine trypsin at constant substrate and enzyme concentrations (Table IV); settings: substrate concentration 2 × 10^-4 M; pH 8.4, ionic strength 0.30, 37° C., 405 nm
Experimental: The results listed in Table IV were obtained under the following experimental conditions: In a measuring vessel 1.7 ml of tris-imidazole buffer having a pH of 8.4 and an ionic strength of 0.30 were mixed at 37° C. with 0.1 ml of an aqueous trypsin solution having a concentration of 2 NF units of trypsin per ml. To the mixture 0.2 ml of a 2×10^-3 molar solution of the substrate to be tested was added. Thereafter, the quantity of p-nitroaniline released from the substrate by the action of the trypsin was determined by measuring the change in the optical density Δ OD per minute at a wave length of 405 nm.

[8] = target: T2, urokinase; assay: Determination of urokinase concentration with substrate I (ΔOD versus urokinase quantity); settings: ΔOD within 10 minutes
Experimental: In the appended drawing the sole figure represents a graph in which the change in the optical density Δ OD caused by the hydrolytic action of various quantities of urokinase on substrate I within 10 minutes is plotted as a function of the urokinase quantity in a co-ordinate system. From this graph it can be seen that urokinase concentrations can be determined accurately in the range of 1 to 10 CTA/ml. In the determination of the urokinase content in the urine of 14 healthy test persons values of about 8 CTA units per ml of urine were found.

[9] = test system: human thrombin; assay: Enzyme quantity splitting substrate I at 1 μmole pNA per minute (Table II), thrombin
Experimental: NIH is a unit which was standardized by the "US National Institute of Health".
as §1

[10] = 37° C., pH 8.4, ionic strength 0.3, substrate concentration 10^-4 mole

Row | enzyme quantity releasing 1 μmole of pNA per minute from substrate I, in corresponding other units [2] | enzyme quantity releasing 1 μmole of pNA per minute from substrate I, in corresponding other units [3, 10] | splitting by kallikrein present in urine (in words) ([3]; conclusion from Table II) | enzyme quantity releasing 1 μmole of pNA per minute from substrate I, in corresponding other units [4] | enzyme quantity releasing 1 μmole of pNA per minute from substrate I, in corresponding other units [5] | Vmax [6] | Quantity in nanomoles of p-nitroaniline enzymatically released from the substrate by 1 NF unit of trypsin in 1 minute [7] | range of urokinase concentrations that can be determined accurately [8] | enzyme quantity releasing 1 μmole of pNA per minute from substrate I, in corresponding other units [9, 10] | splitting by thrombin (in words) ([9]; conclusion from Table II) | Structure (SMILES) | lowest trypsin concentration that can be determined [1]
1 | – | – | – | – | – | – | – | – | – | – | N=C(N)NCCC[C@H](NC(=O)CNC(=O)[C@@H](NC(=O)OCc1ccccc1)C1CCCCC1)C(=O)Nc1ccc([N+](=O)[O-])cc1 [Substrate X, N^α -Cbo-C.Cyclohexylglycyl-Gly-Arg-pNA.HCl] (Cbz-[Chg]-Gly-Arg-pNA) | ≥ 0.01 NF unit per ml
2 | 20250 CTA | 1688 BAEE | split but little | 6850 CU | 36.6 NF | 7.27 × 10^-5 μmole/min. CTA | 20,9 nanomoles | 1 to 10 CTA/ml | 2174 NIH | split very little and unspecifically | CC(C)[C@H](NC(=O)c1ccccc1)C(=O)NCC(=O)N[C@@H](CCCNC(=N)N)C(=O)Nc1ccc([N+](=O)[O-])cc1 [Substrate I, N^α -Bz-Val-Gly-Arg-pNA.HCl] (Bz-Val-Gly-Arg-pNA) | –
